Measurements reported in the Deep4Chem optical property database.
Values belong to the compound of their own block, whether it stands above or below them.

Experiment: solvent given as SMILES
[1] = in O=P(c1ccccc1)(c1ccccc1)c1ccccc1Oc1ccccc1P(=O)(c1ccccc1)c1ccccc1

emission maximum (in C1CCCCC1): 408 nm
emission maximum (in C1COCCO1): 418 nm
emission maximum (in CC#N): 435 nm
emission maximum (in CCO): 439 nm
emission maximum (in OCC(F)(F)F): 436 nm
Structure (SMILES): Cc1cc2c(o1)c(Br)cc1c(C)cc(=O)oc12

Structure (SMILES): O=Cc1ccc(N(c2ccc(C=O)cc2)c2ccc(-c3ccc4c(c3)C(=O)c3ccccc3C4=O)cc2)cc1
emission maximum (in C1CCOC1): 662 nm
emission maximum (in CCCCCC): 493 nm
emission maximum (in CCOC(C)=O): 654 nm
emission maximum (in CCOCC): 585 nm
emission maximum (in Cc1ccccc1): 558 nm
emission maximum (in ClC(Cl)(Cl)Cl): 541 nm
emission maximum (in ClCCl): 685 nm

Structure (SMILES): O=[N+]([O-])c1ccc(S(=O)(=O)Nc2ccc(C#Cc3ccc4ccc5ccc(C#Cc6ccc(NS(=O)(=O)c7ccc([N+](=O)[O-])cc7[N+](=O)[O-])cc6)c6ccc3c4c56)cc2)c([N+](=O)[O-])c1
emission maximum (in CO): 539 nm

Structure (SMILES): CC(C)[Si]1(C(C)C)c2cc(C=C(C#N)C#N)ccc2-c2ccc(N(C)C)cc21
emission maximum (in C1CCCCC1): 509 nm
emission maximum (in CC#N): 694 nm
emission maximum (in CCO): 691 nm
emission maximum (in CCOCC): 584 nm
emission maximum (in CS(C)=O): 714 nm
emission maximum (in ClCCl): 644 nm
emission maximum (in c1ccccc1): 566 nm

emission maximum (in CC#N): 484 nm
emission maximum (in ClCCl): 537 nm
Structure (SMILES): COC(=O)c1cc(=O)n(C)c2cc(-c3ccccc3N(C)C)sc12

emission maximum (in CO): 778 nm
emission maximum (in O): 770 nm
Structure (SMILES): CC1(C)C2=[N+](CCCCCC(=O)NCCNC(=O)CCCCCN3/C(=C/C=C/C=C/C=C/2)C(C)(C)c2cc(S(=O)(=O)[O-])ccc23)c2ccc(S(=O)(=O)[O-])cc21

emission maximum (in C1CCOC1): 525 nm
Structure (SMILES): CC(C)[Si](C#CC1=CC2=c3cc(C#C[Si](C(C)C)(C(C)C)C(C)C)c4nc(C(F)(F)C(F)(F)C(F)(F)F)nc5c(C#C[Si](C(C)C)(C(C)C)C(C)C)cc(c3c54)C3=CC(C#C[Si](C(C)C)(C(C)C)C(C)C)=C4N=C(C(F)(F)C(F)(F)C(F)(F)F)N=C1C4C32)(C(C)C)C(C)C (stereo not drawn)

emission maximum (in ClCCl): 482 nm
Structure (SMILES): Cc1ccc2c(c1)B(c1c(C(C)C)cc(C(C)C)cc1C(C)C)c1cc(C)cc3c1N2c1ccc(C)cc1B3c1c(C(C)C)cc(C(C)C)cc1C(C)C

emission maximum (in C1CCCCC1): 445 nm
emission maximum (in CC#N): 610 nm
emission maximum (in CO): 639 nm
emission maximum (in ClC(Cl)Cl): 534 nm
Structure (SMILES): CN(C)c1ccc2nc(-c3ccc(/C=N/c4ccccc4)cc3)sc2c1

emission maximum (in C1CCOC1): 680 nm
emission maximum (in CS(C)=O): 692 nm
emission maximum (in ClCCl): 682 nm
Structure (SMILES): COc1cc(OC)cc(C2=C3C(C)=C(I)C(/C=C/c4ccsc4)=[N+]3[B-](F)(F)n3c(/C=C/c4ccsc4)c(I)c(C)c32)c1

emission maximum (in C1CCCCC1): 360 nm
emission maximum (in C1COCCO1): 380 nm
emission maximum (in CC#N): 435 nm
emission maximum (in CCO): 460 nm
emission maximum (in OCC(F)(F)F): 485 nm
Structure (SMILES): Cc1cc2c(o1)c(C)cc1ccc(=O)oc12

emission maximum (in ClCCl): 391 nm
Structure (SMILES): COc1ccc(-c2ccc3c(c2)C=Cc2cc(-c4ccc(OC)cc4)ccc2[Si]3(C)C)cc1

Structure (SMILES): F[B-]1(F)OC(c2ccccc2)=Nc2sc(-c3ccccc3)n[n+]21
emission maximum (in C1CCOC1): 402 nm
emission maximum (in CC#N): 415 nm
emission maximum (in CCO): 409 nm
emission maximum (in CCOC(C)=O): 411 nm
emission maximum (in CN(C)C=O): 419 nm
emission maximum (in Cc1ccccc1): 410 nm
emission maximum (in ClC(Cl)Cl): 413 nm
emission maximum (in ClCCl): 412 nm

Structure (SMILES): C=C(C)C(CN1C(=O)c2cccc3c2c(cc2oc(C)nc23)C1=O)OO (stereo not drawn)
emission maximum (in CCO): 416 nm

emission maximum (in C1CCOC1): 721 nm
Structure (SMILES): CCc1nc2c(nc1CC)C(c1ccccc1)=[N+]1C2=Nc2c3nc(CC)c(CC)nc3c(-c3ccccc3)n2[B-]1(F)F

emission maximum (in ClCCl): 421 nm
Structure (SMILES): CCOC(=O)c1c(-c2cc3ccc(OC)cc3oc2=O)nn(-c2ccccc2)c1C(=O)OCC

Structure (SMILES): O=C1c2ccc3c4ccc5c6c(ccc(c7ccc(c2c37)C(=O)N1c1ccncc1)c64)C(=O)N(c1ccncc1)C5=O
emission maximum (in C1CCOC1): 570 nm
emission maximum (in C1COCCO1): 572 nm
emission maximum (in CC(C)=O): 570 nm
emission maximum (in CC(C)O): 572 nm
emission maximum (in CCCCO): 570 nm
emission maximum (in CCO): 569 nm
emission maximum (in CCOC(C)=O): 567 nm
emission maximum (in CN(C)C=O): 574 nm
emission maximum (in CO): 569 nm
emission maximum (in CS(C)=O): 580 nm
emission maximum (in ClC(Cl)(Cl)Cl): 573 nm
emission maximum (in ClC(Cl)Cl): 576 nm

Structure (SMILES): c1ccc(-c2nc(-c3ccccc3)nc(-c3ccc(-n4c5ccccc5c5cc6c(cc54)C4(c5ccccc5-c5ccccc54)c4ccccc4-6)cc3)n2)cc1
emission maximum (in C1CCOC1): 492.65 nm
emission maximum (in CCCCCC): 396.27 nm
emission maximum (in Cc1ccccc1): 432 nm
emission maximum (in ClCCl): 501.47 nm
emission maximum [1]: 470 nm

emission maximum (in CC#N): 536.75 nm
emission maximum (in CCCCCC): 487.83 nm
Structure (SMILES): Cc1ccc2c(c1)C(=O)c1ccncc1-2

emission maximum (in CCO): 650 nm
Structure (SMILES): CC1=C(Cl)C(/C=C/c2ccc3c(c2)c2ccccc2n3Cc2cn(CCC[P+](c3ccccc3)(c3ccccc3)c3ccccc3)nn2)=[N+]2C1=C(c1ccc(I)cc1)c1c(C)c(Cl)c(C)n1[B-]2(F)F

emission maximum (in CN(C)C=O): 410 nm
Structure (SMILES): O=C([O-])c1c2ccccc2c(C(=O)[O-])c2ccccc12

emission maximum (in C1CCCCC1): 640 nm
emission maximum (in CCOC(C)=O): 679 nm
Structure (SMILES): CC1=[N+]2C(=C(c3ccccc3C)c3ccc(C)n3[B-]2(F)F)C=C1c1cc2n(c1)[B-](F)(F)[N+]1=CC=CC1=C2c1c(C)cc(C)cc1C

emission maximum (in CC#N): 558 nm
emission maximum (in ClCCl): 547 nm
Structure (SMILES): COc1ccc(-c2cc3c(s2)c(C(=O)c2ccccc2)cc(=O)n3Cc2ccccc2)cc1

Structure (SMILES): CN(C)c1ccc2c(c1)C(=O)NC2=O
emission maximum (in C1CCOC1): 459 nm
emission maximum (in C1COCCO1): 457 nm
emission maximum (in CC#N): 490 nm
emission maximum (in CC(C)(C)O): 516 nm
emission maximum (in CC(C)=O): 483 nm
emission maximum (in CC(C)O): 523 nm
emission maximum (in CCOCC): 440 nm
emission maximum (in CO): 534 nm
emission maximum (in O): 562 nm

emission maximum (in ClCCl): 468 nm
Structure (SMILES): COc1ccc2oc(=N)c(C#N)cc2c1

emission maximum (in C1CCCCC1): 424 nm
emission maximum (in CC#N): 568 nm
emission maximum (in CC(C)O): 585.02 nm
emission maximum (in CO): 629 nm
emission maximum (in CS(C)=O): 569.23 nm
emission maximum (in ClC(Cl)Cl): 506 nm
emission maximum (in c1ccccc1): 474.9 nm
Structure (SMILES): CC(=O)c1ccc(-c2nc3ccc(N(C)C)c(Cl)c3s2)cc1

emission maximum (in C1COCCO1): 354 nm
Structure (SMILES): CCC(C)(C)c1ccc(-c2ccc(-c3ccc(C(C)(C)CC)cc3)cc2)cc1

Structure (SMILES): CCCCN1C(=O)C(=CC=C2N(CCCC)c3ccccc3N2CCCC)C(=O)N(CCCC)C1=S
emission maximum (in CCCCCC): 488 nm
emission maximum (in CCO): 478 nm
emission maximum (in CN(C)C=O): 482 nm
emission maximum (in Cc1ccccc1): 490 nm
emission maximum (in ClC(Cl)Cl): 489 nm
emission maximum (in ClCCl): 486 nm

Structure (SMILES): O=c1oc2ccccc2cc1-c1nc2ccccc2o1
emission maximum (in C1CCOC1): 444 nm
emission maximum (in C1COCCO1): 443 nm
emission maximum (in CC1CCCCC1): 438 nm
emission maximum (in CC#N): 443 nm
emission maximum (in CC(C)=O): 444 nm
emission maximum (in CC(C)CO): 445 nm
emission maximum (in CC(C)O): 444 nm
emission maximum (in CCOC(C)=O): 443 nm
emission maximum (in CN(C)C=O): 445 nm
emission maximum (in CO): 440 nm
emission maximum (in CS(C)=O): 453 nm
emission maximum (in Cc1ccccc1): 445 nm
emission maximum (in ClC(Cl)(Cl)Cl): 444 nm
emission maximum (in ClC(Cl)Cl): 443 nm
emission maximum (in OCCO): 447 nm

Structure (SMILES): O=C1c2ccccc2C(=O)C1C1C(=O)c2c3ccccc3cc3cc4ccccc4c1c23 (stereo not drawn)
emission maximum (in C1CCOC1): 569 nm
emission maximum (in CC#N): 591 nm
emission maximum (in CCCCCC): 538 nm
emission maximum (in Cc1ccccc1): 563 nm
emission maximum (in ClCCl): 583 nm

emission maximum (in C1CCOC1): 474 nm
Structure (SMILES): CCOc1cc(C=C2c3ccccc3-c3ccccc32)c(OCC)cc1C=C1c2ccccc2C=Cc2ccccc21

emission maximum (in CO): 580 nm
Structure (SMILES): COC(=O)COc1ccc(/C=C/C2=[N+]3C(=C(c4ccc(N(C)C)cc4)c4c(C)cc(C)n4[B-]3(F)F)C(C)=C2)cc1

emission maximum (in CN(C)C=O): 424 nm
Structure (SMILES): CCN(CC)c1ccc(-c2nc(Oc3ccc(-c4nc5ccc(Cl)cc5o4)cc3)nc(Oc3ccc(-c4nc5ccc(Cl)cc5o4)cc3)n2)cc1

emission maximum (in CC#N): 558 nm
Structure (SMILES): C[n+]1ccn(CCCCc2ccc3c(c2)c2ccccc2n3-c2cc(C#N)c(C#N)cc2F)c1

emission maximum (in ClC(Cl)Cl): 446 nm
Structure (SMILES): COc1cc(OC)c2cc(-c3ccc(-c4cc5c(OC)cc(OC)cc5oc4=O)cc3)c(=O)oc2c1

emission maximum (in ClCCl): 572 nm
Structure (SMILES): COc1ccc(C2=C(c3ccc(OC)cc3)c3cccc4c3c(cc3nc5ccccc5nc34)O2)cc1

Structure (SMILES): CC(C)(C)c1ccc2c(c1)c1cc(C(C)(C)C)ccc1n2-c1ccc(S(=O)(=O)c2ccc(-n3c4ccc(C(C)(C)C)cc4c4cc(C(C)(C)C)ccc43)nc2)cn1
emission maximum (in Cc1ccccc1): 444.37 nm
emission maximum (in O=P(c1ccccc1)(c1ccccc1)c1ccc2sc3cccc(P(=O)(c4ccccc4)c4ccccc4)c3c2c1): 467 nm

emission maximum (in ClC(Cl)Cl): 422 nm
Structure (SMILES): c1ccc2c(c1)-c1c(ccc3ccccc13)C21c2cc(-c3ccc4ccc5cccc6ccc3c4c56)ccc2-c2ccc(-c3ccc4ccc5cccc6ccc3c4c56)cc21

emission maximum (in ClCCl): 544 nm
Structure (SMILES): C[C@H](Nc1c2ccc(=[N+]3CCCCC3)cc-2oc2cc(N3CCCCC3)ccc12)C(=O)OC(C)(C)C

emission maximum (in CO): 503 nm
Structure (SMILES): c1ccc(N(c2ccccc2)c2ccc(-c3ncc(-c4ccc(-c5cnc(-c6ccc(N(c7ccccc7)c7ccccc7)cc6)s5)s4)s3)cc2)cc1

emission maximum (in ClCCl): 596 nm
Structure (SMILES): O=C1c2ccccc2C2=Nc3cccc4cccc(c34)N12

emission maximum (in CCO): 420 nm
emission maximum (in ClCCl): 420 nm
Structure (SMILES): COCc1ncc(-c2c3ccccc3c(-c3cnc(COC)nc3)c3ccccc23)cn1

Structure (SMILES): Cc1c(-c2ccc(N3c4ccccc4C(C)(C)c4ccccc43)cc2)ncnc1-c1ccc(N2c3ccccc3C(C)(C)c3ccccc32)cc1
emission maximum (in Cc1ccccc1): 477 nm
emission maximum [1]: 481 nm

Structure (SMILES): CCCCOc1ccc(-c2oc3c(-c4ccc(OCCCC)cc4)c4n(c3c2-c2ccc(OCCCC)cc2)[B-](F)(F)[N+]2=Cc3c(-c5ccc(OCCCC)cc5)c5oc(-c6ccc(OCCCC)cc6)c(-c6ccc(OCCCC)cc6)c5n3[B-](F)(F)[N+]2=C4)cc1
emission maximum (in C1CCOC1): 663 nm
emission maximum (in CN(C)C=O): 672 nm
emission maximum (in CS(C)=O): 676 nm
emission maximum (in Cc1ccccc1): 668 nm
emission maximum (in ClC(Cl)Cl): 666 nm
emission maximum (in ClCCl): 667 nm

emission maximum (in CCO): 465 nm
Structure (SMILES): Cc1c(C)n2c(COC(=O)c3ccccc3O)c(C)c(=O)n2c1=O

emission maximum (in ClC(Cl)Cl): 425 nm
Structure (SMILES): CCCCCCCCCCCCc1sc(CCCCCCCCCCCC)c2c3ccsc3c3sccc3c12
